Values quoted from earlier work, collected in US6841573B2, “Use of arachidonic acid as a method of increasing skeletal muscle mass” (Molecular Nutrition, priority 2002, dated 2005).

Columns and labels:
[1] = target: T1, cox-1 enzyme (Homo sapiens, UniProt P23219); conditions: by inhibiting the normal post-exercise increase in PGF2alpha
T1 construct: host or cells: skeletal muscle in vivo (endogenous enzyme)

[2] = after administering the precursor
[3] = after oral 200 mg and 1.5 g supplemented arachidonic acid per day, human, drawn blood
[4] = 14C-labeled arachidonic acid, human skeletal muscle and kidney homogenates
[5] = serum from forearm and kidney of human volunteers after direct infusion into brachial or renal artery
[6] = tested on: intact rabbit muscle; conditions: unstimulated intact rabbit muscle, in-vitro

T1 sequence (P23219 24-599): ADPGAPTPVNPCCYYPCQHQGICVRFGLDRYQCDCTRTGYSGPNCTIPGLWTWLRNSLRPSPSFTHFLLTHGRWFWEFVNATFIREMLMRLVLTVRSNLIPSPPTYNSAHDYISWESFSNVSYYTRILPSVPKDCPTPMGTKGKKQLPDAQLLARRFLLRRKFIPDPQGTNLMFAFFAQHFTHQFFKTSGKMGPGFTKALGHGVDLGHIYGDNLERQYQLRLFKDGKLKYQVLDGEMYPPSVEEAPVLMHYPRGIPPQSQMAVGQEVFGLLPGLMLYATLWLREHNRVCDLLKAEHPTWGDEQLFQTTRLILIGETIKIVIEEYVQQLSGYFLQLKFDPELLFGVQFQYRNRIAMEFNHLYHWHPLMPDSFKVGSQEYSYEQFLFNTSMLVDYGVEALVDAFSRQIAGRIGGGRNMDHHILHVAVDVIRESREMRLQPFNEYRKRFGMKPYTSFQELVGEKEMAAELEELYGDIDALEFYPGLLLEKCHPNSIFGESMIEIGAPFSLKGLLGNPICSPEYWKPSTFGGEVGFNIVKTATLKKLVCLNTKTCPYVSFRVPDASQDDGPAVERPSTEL

Row | Compound | effect on rates of protein synthesis [6] | further results
1 | CC(=O)Nc1ccc(O)cc1 [acetaminophen] |  | effect on anabolic response of muscle to resistance exercise [1]: profoundly diminish the anabolic response
2 | C[C@]12CCC(=O)C=C1CC[C@@H]1[C@@H]2CC[C@]2(C)C(=O)CC[C@@H]12 [androstenedione] |  | period of subsequent decline of active hormone (testosterone) concentration [2]: three to four; time to peak concentration of active hormone (testosterone) [2]: ≤ 90 min
3 | CCCCC/C=C\C/C=C\C/C=C\C/C=C\CCCC(=O)O [arachidonic acid] |  | in-vitro secretion of LTB4 and PGE2 [3]: measurably increase; prostaglandins produced during incubation [4]: PGD2, PGE2, PGF2 alpha and 6-keto-PGF1 alpha; labeled metabolites found in serum [5]: PGD2, PGE2, PGF2 alpha, 6-keto-PGF1 alpha and 13,14-dihydro-15-keto-PGE2 (Me) were all found
4 | CCCCC/C=C\C\C=C/C=C/C=C/[C@@H](SC[C@H](NC(=O)CC[C@H](N)C(=O)O)C(=O)NCC(=O)O)[C@@H](O)CCCC(=O)O [leukotriene C4] | failed to do so | 
5 | CCCCC/C=C\C\C=C/C=C/C=C/[C@@H](SC[C@H](N)C(=O)NCC(=O)O)[C@@H](O)CCCC(=O)O [leukotriene D4] | failed to do so | 
6 | CCCCC[C@H](O)/C=C/[C@H]1C=CC(=O)[C@@H]1CCCCCCC(=O)O [prostaglandin A1] | increased rates of protein synthesis | 
7 | CCCCC[C@H](O)/C=C/[C@H]1C(=O)C[C@H](O)[C@@H]1C/C=C\CCCC(=O)O [prostaglandin D2, PGD2] | failed to do so | 
8 | CCCCC[C@H](O)/C=C/[C@H]1[C@H](O)CC(=O)[C@@H]1C/C=C\CCCC(=O)O [prostaglandin E2, PGE2] | failed to do so | 
9 | CCCCC[C@H](O)/C=C/[C@@H]1[C@@H](C/C=C\CCCC(=O)O)[C@@H](O)C[C@H]1O [prostaglandin F2 alpha, PGF2alpha] | increased rates of protein synthesis | 
